According to ChEMBL document CHEMBL5050829, “Inhibitors of cytochrome P450 family 7 subfamily B member 1 (CYP7B1) for use in treating diseases” (2021):
Calls of active or inactive are those of the source. The rule behind the calls is not given here.

Assays:
Mus musculus [1] = species: Mus musculus; experiment: Inhibition of Cyp7b1 in cigarette smoke extract (CSE)-stimulated mouse airways at 1 uM assessed as impairment of activated B-cell migration towards supernatant culture relative to control; assay type: tissue-based; conditions: Respiratory airway
Mus musculus [2] = experiment: Protection against cigarette smoke-induced COPD in C57BL/6 mouse exposed with cigarette smoke for 4 months assessed as reduction in emphysema in lungs at 80 mg/kg, ip administered 3 times per week from 2 to 4 months; assay type: functional, organism-based; conditions: Lung
Mus musculus [3] = experiment: Protection against cigarette smoke-induced COPD in C57BL/6 mouse exposed with cigarette smoke for 4 months assessed as reduction in iBALT formation in lungs at 80 mg/kg, ip administered 3 times per week from 2 to 4 months; assay type: functional, organism-based; conditions: Lung
Mus musculus [4] = species: Mus musculus; experiment: Inhibition of Cyp7b1 in cigarette smoke extract (CSE)-stimulated mouse airways at 1 uM assessed as reduction in Ch25h mRNA expression relative to control; assay type: tissue-based; conditions: Respiratory airway
Mus musculus [5] = species: Mus musculus; experiment: Inhibition of Cyp7b1 in cigarette smoke extract (CSE)-stimulated mouse airways at 1 uM assessed as reduction in cyp7b1 mRNA expression relative to control; assay type: tissue-based; conditions: Respiratory airway
Mus musculus [6] = experiment: Protection against cigarette smoke-induced COPD in C57BL/6 mouse exposed with cigarette smoke for 4 months assessed as reduction in lung volume at 80 mg/kg, ip administered 3 times per week from 2 to 4 months; assay type: functional, organism-based
Mus musculus [7] = experiment: Protection against cigarette smoke-induced COPD in C57BL/6 mouse exposed with cigarette smoke for 4 months assessed as reduction in macrophage count in BALF at 80 mg/kg, ip administered 3 times per week from 2 to 4 months; assay type: functional, organism-based
Mus musculus [8] = experiment: Protection against cigarette smoke-induced COPD in C57BL/6 mouse exposed with cigarette smoke for 4 months assessed as reduction in lymphocyte count in BALF at 80 mg/kg, ip administered 3 times per week from 2 to 4 months; assay type: functional, organism-based
Mus musculus [9] = experiment: Protection against cigarette smoke-induced COPD in C57BL/6 mouse exposed with cigarette smoke for 6 months assessed as reduction in iBALT formation in lungs at 80 mg/kg, ip administered 3 times per week from 2 to 4 months; assay type: functional, organism-based; conditions: Lung
Mus musculus [10] = experiment: Protection against cigarette smoke-induced COPD in C57BL/6 mouse exposed with cigarette smoke for 6 months assessed as reduction in emphysema in lungs at 80 mg/kg, ip administered 3 times per week from 2 to 4 months; assay type: functional, organism-based; conditions: Lung
Mus musculus [11] = experiment: Protection against cigarette smoke-induced COPD in C57BL/6 mouse exposed with cigarette smoke for 6 months assessed as reduction in lung volume at 80 mg/kg, ip administered 3 times per week from 2 to 4 months; assay type: functional, organism-based
Mus musculus [12] = experiment: Protection against cigarette smoke-induced COPD in C57BL/6 mouse exposed with cigarette smoke for 6 months assessed as reduction in macrophage count in BALF at 80 mg/kg, ip administered 3 times per week from 2 to 4 months; assay type: functional, organism-based
B cell [13] = experiment: Inhibition of Cyp7b1 in cigarette smoke extract (CSE) and LPS-stimulated mouse B cells at 0.3 to 1 uM assessed as reduction in cyp7b1 mRNA expression and measured by RT-PCR analysis relative to control; assay type: cell-based; conditions: dose 0.3-1 µM
B cell [14] = experiment: Inhibition of Cyp7b1 in cigarette smoke extract (CSE) and LPS-stimulated mouse B cells at 0.3 to 1 uM assessed as reduction in Ch25h mRNA expression and measured by RT-PCR analysis relative to control; assay type: cell-based; conditions: dose 0.3-1 µM
B cell [15] = experiment: Inhibition of Cyp7b1 in cigarette smoke extract (CSE) and LPS-stimulated mouse B cells at 0.3 to 1 uM assessed as reduction in TNF-alpha mRNA expression and measured by RT-PCR analysis relative to control; assay type: cell-based; conditions: dose 0.3-1 µM
Mus musculus [16] = species: Mus musculus; experiment: Inhibition of Cyp7b1 in cigarette smoke extract (CSE)-stimulated mouse airways at 0.1 to 1 uM assessed as impairment of activated B-cell migration towards supernatant culture relative to control; assay type: tissue-based; conditions: Respiratory airway, dose 0.1-1 µM

SMILES: Clc1ccc(COC(Cn2ccnc2)c2ccc(Cl)cc2Cl)c(Cl)c1 (stereo not drawn)
- inhibition (Mus musculus [1]): Active

SMILES: Clc1ccccc1C(c1ccccc1)(c1ccccc1)n1ccnc1
- Activity (Mus musculus [2]): Active
- Activity (Mus musculus [3]): Active
- inhibition (Mus musculus [1]): Active
- inhibition (Mus musculus [4]): inactive
- inhibition (Mus musculus [5]): Active
- Activity (Mus musculus [6]): Active
- Activity (Mus musculus [7]): Active
- Activity (Mus musculus [8]): Active
- Activity (Mus musculus [9]): Active
- Activity (Mus musculus [10]): Active
- Activity (Mus musculus [11]): Active
- Activity (Mus musculus [12]): Active
- inhibition (B cell [13]): Active
- inhibition (B cell [14]): Active
- inhibition (B cell [15]): Active

SMILES: CC(C)c1nc(CN(C)C(=O)N[C@H](C(=O)N[C@@H](Cc2ccccc2)C[C@H](O)[C@H](Cc2ccccc2)NC(=O)OCc2cncs2)C(C)C)cs1
- inhibition (Mus musculus [16]): Active

SMILES: CC(C)(C(=O)c1cccnc1)c1cccnc1
- inhibition (Mus musculus [1]): Active
